Consider 13 compounds from article PMC5089653, “Isoxazole‐Derived Amino Acids are Bromodomain‐Binding Acetyl‐Lysine Mimics: Incorporation into Histone H4 Peptides and Histone H3” (Angewandte Chemie (International Ed. in English), 2016).

In one assay the target is T1, BRD4(1) (Homo sapiens, UniProt O60885).
T1 construct: the phylogenetically diverse BAZ2A, BRD4(1), and BRD9 bromodomains; His tag (pNIC28-Bsa4 vector; purified on HisTrap) (N); made in house; host or cells: E. coli BL21 (DE3) Gold
Put plainly: AlphaScreen assay inhibiting the interaction of BRD4(1) with biotinylated H4(KAc)4. The note with it: for Percentage inhibition of bromodomain-KAc recognition, BRD4(1), H4(KAc)4 / inhibition at 0.004 µM: AlphaScreen, average of triplicate, BRD4(1) 10 nM, biotin-H4(KAc)4 4 nM. Type of assay: binding. The source says:
(§1) Supporting Table S1: Percentage inhibition of bromodomain-KAc recognition by isoxazole-containing amino acids.
(§2) Inhibitory values of unprotected amino acids given as average percentage inhibition (buffer […]
(§3) measurements in triplicate (AlphaScreen). n.d. value not determined. Inhibition values highlighted as a heatmap from green (low inhibition) to red (high inhibition). […]
(§4) Protein expression and purification: bromodomain-containing constructs in pNIC28-Bsa4 vector backbones were transformed into E. coli BL21 (DE3) Gold cells. Flasks containing […]
(§5) starter culture. Flasks (2000 mL PYREX® narrow-mouth graduated Erlenmeyer flasks or plastic baffled flasks) were incubated at 37 °C and 180 rpm in an Innova® 44 shaker (New Brunswick Scientific). When OD600 reached 0.8-1.0, the temperature was lowered to 18 °C and IPTG was added to a final concentration of 0.25 mM to induce protein expression.
Cultures were incubated at 18 °C overnight, after which time cultures were harvested by centrifugation in a JA10 rotor in an Avanti J25 centrifuge (Beckman CoulterTM) at 8000 rpm for 15 min at 4 °C. The resulting pellet was weighed and stored in a sealable plastic bag at - 80 °C. Proteins were purified with a 3 mL HisTrapTM chromatography column (GE Healthcare), and Superdex 75 XK 16/600 gel filtration column (GE Healthcare) using standard
A general note: Alpha assays give light when donor and acceptor beads are brought close together.

In assay [1] the target is T2, BAZ2A (Homo sapiens, UniProt Q9UIF9).
T2 construct: the phylogenetically diverse BAZ2A, BRD4(1), and BRD9 bromodomains; Structural Genomics Consortium (Oxford)
T2 sequence (Q9UIF9 1793-1897 limits assumed): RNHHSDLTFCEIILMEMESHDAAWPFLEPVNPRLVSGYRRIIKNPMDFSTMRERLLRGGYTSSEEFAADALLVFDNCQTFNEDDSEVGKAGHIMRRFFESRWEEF
Description: AlphaScreen single shot screening, BAZ2A with biotin-H3K14Ac peptide. Type of assay: binding. The settings on record: average of triplicate, BAZ2A 25 nM, biotin-H3 5-24 KAc14 50 nM, read-out: Percentage inhibition of bromodomain-KAc recognition, BAZ2A, H3K14Ac; for inhibition at 250 µM: amino acid 250 μM, <0.5% DMSO.
Text: as §1, §2, §3, §4, §5
(§6) Cultures were incubated at 18 °C overnight, after which time cultures were harvested by centrifugation in a JA10 rotor in an Avanti J25 centrifuge (Beckman CoulterTM) at 8000 rpm for 15 min at 4 °C. The resulting pellet was weighed and stored in a sealable plastic bag at - 80 °C. Proteins were purified with a 3 mL HisTrapTM chromatography column (GE […]
(§7) AlphaScreen assay: AlphaScreen buffer (25 mM HEPES, 100 mM NaCl, 0.05% w/v CHAPS, 0.1% w/v BSA; pH 7.6) was prepared fresh each day, filter sterilization through a 0.22 µm filter, and stored at 4 °C, with equilibration to room temperature before use. Single shot screening against BAZ2A and BRD9A was carried out by the Structural Genomics Consortium (Oxford) as described previously.[12] Biotinylated peptides employed and final assay […]
(§8) biotin-H35-24KAc14 50 nM. Amino acids were tested at 25 µM and 250 µM with <0.5% DMSO.

In assay [2] the target is T3, BRD9 (Homo sapiens, UniProt Q9H8M2).
T3 construct: the phylogenetically diverse BAZ2A, BRD4(1), and BRD9 bromodomains; Structural Genomics Consortium (Oxford)
T3 sequence (Q9H8M2 136-240 limits assumed): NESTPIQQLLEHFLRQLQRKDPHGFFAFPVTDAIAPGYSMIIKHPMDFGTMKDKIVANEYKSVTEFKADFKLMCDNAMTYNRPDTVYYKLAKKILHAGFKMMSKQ
Description: AlphaScreen single shot screening, BRD9 with biotin-H2A(KAc)3 peptide. The note with it: average of triplicate, BRD9 40 nM, biotin-H2A 1-21 KAc9KAc13KAc15 25 nM, read-out: Percentage inhibition of bromodomain-KAc recognition, BRD9, H2(KAc)3; for inhibition at 250 µM: amino acid 250 μM, <0.5% DMSO; for inhibition at 25 µM: amino acid 50 μM as headed in Table 1 (supplement: 25 µM). Type of assay: binding.
Text: as §1, §2, §3, §4, §5, §6, §7, §8

Assay [3] concerns the target T2, BAZ2A. Description: AlphaScreen single shot screening, BAZ2A with biotin-H3K14Ac peptide. In kind it is binding. The settings on record: amino acid 50 μM as headed in Table 1 (supplement: 25 µM), average of triplicate, BAZ2A 25 nM, biotin-H3 5-24 KAc14 50 nM, read-out: Percentage inhibition of bromodomain-KAc recognition, BAZ2A, H3K14Ac.
Assay [4] deals with T3, BRD9. Put plainly: AlphaScreen single shot screening, BRD9 with biotin-H2A(KAc)3 peptide. In kind it is binding. The settings on record: amino acid 50 μM as headed in Table 1 (supplement: 25 µM), average of triplicate, BRD9 40 nM, biotin-H2A 1-21 KAc9KAc13KAc15 25 nM, read-out: Percentage inhibition of bromodomain-KAc recognition, BRD9, H2(KAc)3.
The next assay deals with bromodomain of BRDT. The note with it: KAc mimics containing MTCTK; cited from earlier work. The text has this: Lysine acetylation is a prevalent post‐translational modification (PTM) which plays a fundamental role in regulating protein function.1, 2 Although acetylated lysine (KAc) residues are found throughout the cellular environment,3, 4, 5 it is the role of this PTM in chromatin function which has garnered most recent interest.6 KAc is viewed as one of the “marks” that comprises the epigenetic code,7, 8 and enzymes that write (histone acetyl transferases) and erase (histone deacetylases) this modification are well characterized.9 Neutralization of lysine's positive charge by acetylation weakens the ...

[5] abbreviates: amino acid 250 μM, buffer blank 0%, 25% DMSO 100% inhibition.
[6] abbreviates: read-out: Percentage inhibition of bromodomain-KAc recognition, BRD4(1), H4(KAc)4, amino acid 50 μM.
[7] abbreviates: read-out: Percentage inhibition of bromodomain-KAc recognition, BRD4(1), H4(KAc)4, amino acid 250 μM, buffer blank 0%, 25% DMSO 100% inhibition.

Each structure is given as a SMILES string. Read-outs that look alike come from different tables or passages of the source.

Consider `CC(=O)NCCCC[C@H](N)C(=O)O` [KAc, reference compound], for which, at BRD4(1) (amino acid 50 μM), the “Percentage inhibition of bromodomain-KAc recognition, BRD4(1), H4(KAc)4” value (from here on “Percentage inhibition”) was determined as 4.6%.

For the compound `Cc1noc(C)c1-c1cc(O)cc(C(O)c2ccccc2)c1` (stereo not drawn) [compound 2, reference compound], the “inhibition by positive control” value against BRD4(1) (included on each plate of the amino acid screen as a positive control, in every case, concentration not given) is listed as 100%.

With `Cc1cc(CCC[C@H](N)C(=O)O)on1` [compound 3, (S)-2-Amino-5-(3-methylisoxazol-5-yl)pentanoic acid], the “Percentage inhibition” value came to 2.3% at BRD4(1) (amino acid 50 μM) and 16.4% at BRD4(1) (setting [5]).

`Cc1cc(COC[C@H](N)C(=O)O)on1` [compound 4]: the results for the inhibition at 0.004 µM on BRD4(1) (setting [6]) and on BRD4(1) (setting [7]) were 0.6% and 10.3%, respectively.

In the case of `Cc1cc(C(=O)NC[C@H](N)C(=O)O)on1` [compound 5, (S)-2-Amino-3-(3-methylisoxazole-5-carboxamido)propanoic acid], the results for the inhibition at 250 µM on BAZ2A [1] and at BRD9 [2] were 98.7% and 73.6%, respectively. Further, the “Percentage inhibition” value was determined as 2.5% on BRD4(1) (amino acid 50 μM) and 31.2% on BRD4(1) (setting [5]). Also, the inhibition (commonly the relative decrease from the control value, in per cent) at 50 µM on BAZ2A [3] was determined as 58.1%; at BRD9 [4], 28.6%.

Take `CSC(=O)NCCSC[C@H](N)C(=O)O` [compound 7, methylthiocarbonylthialysine]: in the assay with bromodomain of BRDT, the “interaction with the bromodomain of BRDT compared to KAc” value is given as “two‐ to fourfold less efficiently”.

As to `Cc1noc(C)c1-c1cccc(C[C@H](N)C(=O)O)c1` [compound 8], on BAZ2A [1], the inhibition at 250 µM was 45.3% and the inhibition worked out at 5.8%. In addition, at BRD9 [2], the inhibition at 25 µM is -7.7% and the inhibition at 250 µM came out at 0.5%. Moreover, at BRD4(1) (setting [5]), the “Percentage inhibition” value is on record as 76.3%. In addition, the inhibition at 0.004 µM at BRD4(1) (setting [6]) came to 18.3%. Further, the inhibition at 0.004 µM at BRD4(1) (setting [7]) was > 70%.

Take `Cc1noc(C)c1-c1ccc(C[C@H](N)C(=O)O)cc1` [compound 9]: on BAZ2A [1], the inhibition at 250 µM is 28.1% and the inhibition worked out at 2.6%. Further, at BRD9 [2], the inhibition at 25 µM is -1.7% and the inhibition at 250 µM was determined as 66.5%. The inhibition at 0.004 µM on BRD4(1) (setting [6]) stood at 22.7%. In addition, at BRD4(1) (setting [7]), the inhibition at 0.004 µM came to 45.8%.

Consider `Cc1noc(C)c1NC(=O)CC[C@H](N)C(=O)O` [compound 10, N5-(3,5-Dimethylisoxazol-4-yl)-L-glutamine], for which, at BAZ2A [1], the inhibition at 250 µM turned out to be 25.1% and the inhibition was determined as 1.4%. At BRD9 [2], the inhibition at 25 µM is -4.8% and the inhibition at 250 µM was -3.1%. Moreover, the inhibition at 0.004 µM on BRD4(1) (setting [6]) is 4.1%. For the same compound, at BRD4(1) (setting [7]), the inhibition at 0.004 µM is 7.5%.

For `Cc1cc(CNC(=O)C[C@H](N)C(=O)O)on1` [compound 11], at BAZ2A [1], the inhibition at 250 µM turned out to be 53.8% and the inhibition was 1.9%. At BRD9 [2], the inhibition at 25 µM was -8.1% and the inhibition at 250 µM was -0.1%. Besides, the inhibition at 0.004 µM at BRD4(1) (setting [6]) came out at 4.7%. In addition, the inhibition at 0.004 µM on BRD4(1) (setting [7]) worked out at 18.5%.

`Cc1noc(C)c1NC(=O)C[C@H](N)C(=O)O` [compound 12]: at BAZ2A [1], the inhibition at 250 µM is 66.9% and the inhibition is 10.5%. At BRD9 [2], the inhibition at 25 µM is -2.1% and the inhibition at 250 µM was 12.6%. The inhibition at 0.004 µM on BRD4(1) (setting [6]) was 1.3%. Moreover, the inhibition at 0.004 µM on BRD4(1) (setting [7]) came out at 23.5%.

`Cc1cc(NC(=O)C[C@H](N)C(=O)O)no1` [compound 13]: on BAZ2A [1], the inhibition at 250 µM worked out at 96.1% and the inhibition is 12.6%. At BRD9 [2], the inhibition at 25 µM was -1% and the inhibition at 250 µM stood at 47.9%. The inhibition at 0.004 µM on BRD4(1) (setting [6]) is 0.9%. The inhibition at 0.004 µM at BRD4(1) (setting [7]) stood at 26.3%.

Regarding `Cc1cc(NC(=O)C[C@H](N)C(=O)O)on1` [compound 14], on BAZ2A [1], the inhibition at 250 µM is 84.3% and the inhibition was 14.5%. At BRD9 [2], the inhibition at 25 µM came to 1.4% and the inhibition at 250 µM came out at 14.6%.
